Experimental data: patent US7776922B2, “Substituted [(phenylethanoyl)amino]benzamides” (Bayer Schering Pharma Aktiengesellschaft, priority 2004, dated 2010)

Biological target: T1, human IL8B receptor (Homo sapiens, UniProt P25025)
T1 construct: expressed in transfected cells; host or cells: CHO cells with mitochondrially localized aequorin, co-transfected with G-alpha-16
T1 sequence (P25025 1-360): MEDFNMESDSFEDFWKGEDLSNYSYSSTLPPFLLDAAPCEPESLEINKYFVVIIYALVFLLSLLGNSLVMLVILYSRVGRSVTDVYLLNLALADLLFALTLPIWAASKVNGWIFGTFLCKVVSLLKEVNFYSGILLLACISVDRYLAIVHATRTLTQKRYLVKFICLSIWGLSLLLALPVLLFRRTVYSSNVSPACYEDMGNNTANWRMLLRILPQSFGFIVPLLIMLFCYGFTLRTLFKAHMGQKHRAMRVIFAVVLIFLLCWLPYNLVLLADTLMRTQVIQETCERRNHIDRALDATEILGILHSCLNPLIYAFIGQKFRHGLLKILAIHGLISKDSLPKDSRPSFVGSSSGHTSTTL
Assay: Functional reporter assay for IL8B receptor antagonists (aequorin Ca2+ bioluminescence in transfected CHO cells)
Assay type: cell-based
Details: CHO cells with mitochondrially localized aequorin, human IL8B receptor and G-alpha-16; inhibition of IL8-induced Ca2+ transient
Description: Functional Reporter Assay for High Throughput Screening of IL8B Receptor Antagonists
CHO cells with mitochondrially localized aequorin are stably transfected with the human IL8B receptor and the G-alpha-16 protein. Activation of the IL8B receptor with IL8 or an endogenous P2Y receptor with ATP leads to Ca^2+ release. This intracellular Ca^2+ transient can be detected by bioluminescence with mitochondrially localized aequorin. IL8-induced Ca^2+ transients are inhibited by IL8B receptor antagonists.
2000 cells in 25 μl of complete medium with 10% FCS per well of a 384-well multititer plate are incubated at 37° C. and 5% CO2 for 24 h. After removal of the medium, 30 μl of an 11.8 μM coelenterazine solution in 2 mM Ca-Tyrode are added, and the cells are incubated at 37° C. in 5% CO2 for a further 4 hours. 10 μl of test substance in 2 mM Ca-Tyrode/0.1% BSA are added, and the cells are incubated at room temperature for 5 minutes. The IL8B receptor is activated by adding 25 μl of a 0.78-2.6 nM IL8 solution in 2 mM Ca-Tyrode/0.1% BSA, or the endogenous P2Y receptor is activated by adding 25 μl of a 7.8-26 μM ATP solution in 2 mM Ca-Tyrode. The bioluminescence is recorded at the same time. IC50 values are calculated from dose-response plots using the Marquardt-Levenberg fit (Table A).

SMILES	IC50
CCC(C(=O)Nc1ccc(-c2cc3ccccc3s2)c(C(N)=O)c1)c1ccccc1 (single isomer, unassigned) [Example 1-2, 2-(1-Benzothien-2-yl)-5-[(2-phenylbutanoyl)amino]benzamide]	100 nM
CCC(C(=O)Nc1ccc(-c2ccc3sccc3c2)c(C(N)=O)c1)c1ccccc1 (single isomer, unassigned) [Example 39-2, 2-(1-Benzothien-5-yl)-5-[(2-phenylbutanoyl)amino]benzamide]	64 nM
CCOc1ccc2cc(-c3ccc(NC(=O)C(CC)c4ccccc4)cc3C(N)=O)ccc2c1 (stereo not shown) [Example 2, 2-(6-Ethoxy-2-naphthyl)-5-[(2-phenylbutanoyl)amino]benzamide]	200 nM
CCC(C(=O)Nc1ccc(-c2cc3ccccc3s2)c(C(N)=O)c1)c1nccs1 (stereo not shown) [Example 26, 2-(1-Benzothien-2-yl)-5-{[2-(1,3-thiazol-2-yl)butanoyl]amino}benzamide]	82 nM
CCC(C(=O)Nc1ccc(-c2ccc(-c3ccccc3)cc2)c(C(N)=O)c1)c1cccs1 (stereo not shown) [Example 29, 4-{[2-(2-Thienyl)butanoyl]amino}-1,1′:4′,1″-terphenyl-2-carboxamide]	92 nM
CCC(C(=O)Nc1ccc(-c2cc3ccccc3s2)c(C(N)=O)c1)c1cccc(F)c1 (stereo not shown) [Example 30, 2-(1-Benzothien-2-yl)-5-{[2-(3-fluorophenyl)butanoyl]amino}benzamide]	77 nM
CCC(C(=O)Nc1ccc(-c2cc3ccccc3s2)c(C(N)=O)c1)c1ccc2c(c1)OCCO2 (stereo not shown) [Example 35, 2-(1-Benzothien-2-yl)-5-{[2-(2,3-dihydro-1,4-benzodioxin-6-yl)butanoyl]amino}benzamide]	74 nM
